{"source": "PubChem BioAssay (NCI)", "assay_in_all_cases": "growth of human tumour cells (NCI), 48 h", "key": {"HCC-2998 colon": {"tested_on": "HCC-2998 colon"}, "HCT-15 colon": {"tested_on": "HCT-15 colon"}, "HOP-62 NSCLC": {"tested_on": "HOP-62 NSCLC"}, "MDA-N": {"tested_on": "MDA-N"}, "MOLT-4 leukemia": {"tested_on": "MOLT-4 leukemia"}, "NCI-H226 lung": {"tested_on": "NCI-H226 lung"}, "NCI-H23 lung": {"tested_on": "NCI-H23 lung"}, "NCI-H460 lung": {"tested_on": "NCI-H460 lung"}, "OVCAR-5 ovarian": {"tested_on": "OVCAR-5 ovarian"}, "SF-268 CNS": {"tested_on": "SF-268 CNS"}, "SK-MEL-5 melanoma": {"tested_on": "SK-MEL-5 melanoma"}, "UO-31 renal": {"tested_on": "UO-31 renal"}}, "note": "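Tested at 5 concentrations; 48 h exposure; 96-well plates; endpoints linearly interpolated, else capped at highest concentration. Definition used: TGI = concentration required for complete inhibition of growth.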", "data": [{"smiles": "O=[N+]([O-])c1ccc(NC(=S)Nc2ccccn2)cc1", "values": [{"measurement": "TGI", "setting": "HCC-2998 colon", "result": "> 100", "unit": "µM"}, {"measurement": "TGI", "setting": "HCT-15 colon", "result": "> 100", "unit": "µM"}, {"measurement": "TGI", "setting": "HOP-62 NSCLC", "result": 44.8, "unit": "µM"}, {"measurement": "TGI", "setting": "MDA-N", "result": "> 100", "unit": "µM"}, {"measurement": "TGI", "setting": "MOLT-4 leukemia", "result": "> 100", "unit": "µM"}, {"measurement": "TGI", "setting": "NCI-H226 lung", "result": "> 64.2", "unit": "µM"}, {"measurement": "TGI", "setting": "NCI-H23 lung", "result": "> 100", "unit": "µM"}, {"measurement": "TGI", "setting": "NCI-H460 lung", "result": "> 100", "unit": "µM"}, {"measurement": "TGI", "setting": "OVCAR-5 ovarian", "result": "> 100", "unit": "µM"}, {"measurement": "TGI", "setting": "SF-268 CNS", "result": "> 91.7", "unit": "µM"}, {"measurement": "TGI", "setting": "SK-MEL-5 melanoma", "result": "> 100", "unit": "µM"}, {"measurement": "TGI", "setting": "UO-31 renal", "result": "> 100", "unit": "µM"}]}, {"smiles": "CC(=O)OCC1OC(n2c(C)c(C(C)=O)c(-c3cccc4ccccc34)c(C#N)c2=S)C(OC(C)=O)C(OC(C)=O)C1OC(C)=O", "note": "(stereo not drawn)", "values": [{"measurement": "TGI", "setting": "HCC-2998 colon", "result": "> 100", "unit": "µM"}, {"measurement": "TGI", "setting": "HCT-15 colon", "result": "> 100", "unit": "µM"}, {"measurement": "TGI", "setting": "HOP-62 NSCLC", "result": "> 100", "unit": "µM"}, {"measurement": "TGI", "setting": "MDA-N", "result": "> 100", "unit": "µM"}, {"measurement": "TGI", "setting": "MOLT-4 leukemia", "result": "> 100", "unit": "µM"}, {"measurement": "TGI", "setting": "NCI-H226 lung", "result": "> 100", "unit": "µM"}, {"measurement": "TGI", "setting": "NCI-H23 lung", "result": "> 100", "unit": "µM"}, {"measurement": "TGI", "setting": "NCI-H460 lung", "result": "> 100", "unit": "µM"}, {"measurement": "TGI", "setting": "OVCAR-5 ovarian", "result": "> 100", "unit": "µM"}, {"measurement": "TGI", "setting": "SF-268 CNS", "result": "> 100", "unit": "µM"}, {"measurement": "TGI", "setting": "SK-MEL-5 melanoma", "result": "> 100", "unit": "µM"}, {"measurement": "TGI", "setting": "UO-31 renal", "result": 0.249, "unit": "µM"}]}, {"smiles": "COC(=O)CCC(C)C1CCC2C3CCC4CC5CCC4(C)C3(O5)C(Br)C(Br)C12C", "note": "(stereo not drawn)", "values": [{"measurement": "TGI", "setting": "HCC-2998 colon", "result": "> 100", "unit": "µM"}, {"measurement": "TGI", "setting": "HCT-15 colon", "result": "> 100", "unit": "µM"}, {"measurement": "TGI", "setting": "HOP-62 NSCLC", "result": "> 100", "unit": "µM"}, {"measurement": "TGI", "setting": "MDA-N", "result": "> 100", "unit": "µM"}, {"measurement": "TGI", "setting": "MOLT-4 leukemia", "result": "> 100", "unit": "µM"}, {"measurement": "TGI", "setting": "NCI-H226 lung", "result": "> 100", "unit": "µM"}, {"measurement": "TGI", "setting": "NCI-H23 lung", "result": "> 100", "unit": "µM"}, {"measurement": "TGI", "setting": "NCI-H460 lung", "result": "> 100", "unit": "µM"}, {"measurement": "TGI", "setting": "OVCAR-5 ovarian", "result": "> 100", "unit": "µM"}, {"measurement": "TGI", "setting": "SF-268 CNS", "result": "> 100", "unit": "µM"}, {"measurement": "TGI", "setting": "SK-MEL-5 melanoma", "result": "> 100", "unit": "µM"}, {"measurement": "TGI", "setting": "UO-31 renal", "result": "> 100", "unit": "µM"}]}, {"smiles": "O=C(CC(C(=O)c1cccs1)c1ccsc1)c1ccco1", "note": "(stereo not drawn)", "values": [{"measurement": "TGI", "setting": "HCC-2998 colon", "result": "> 100", "unit": "µM"}, {"measurement": "TGI", "setting": "HCT-15 colon", "result": 49.5, "unit": "µM"}, {"measurement": "TGI", "setting": "HOP-62 NSCLC", "result": "> 100", "unit": "µM"}, {"measurement": "TGI", "setting": "MDA-N", "result": "> 100", "unit": "µM"}, {"measurement": "TGI", "setting": "MOLT-4 leukemia", "result": "> 100", "unit": "µM"}, {"measurement": "TGI", "setting": "NCI-H226 lung", "result": "> 100", "unit": "µM"}, {"measurement": "TGI", "setting": "NCI-H23 lung", "result": 49.7, "unit": "µM"}, {"measurement": "TGI", "setting": "NCI-H460 lung", "result": 81.9, "unit": "µM"}, {"measurement": "TGI", "setting": "OVCAR-5 ovarian", "result": "> 100", "unit": "µM"}, {"measurement": "TGI", "setting": "SF-268 CNS", "result": 74.2, "unit": "µM"}, {"measurement": "TGI", "setting": "SK-MEL-5 melanoma", "result": "> 100", "unit": "µM"}, {"measurement": "TGI", "setting": "UO-31 renal", "result": 59, "unit": "µM"}]}]}
